SMILES strings stand for the structures. Some results are limits rather than exact numbers.

Test [1] concerns H1975 (EGFR T790M/L858R) cell proliferation. Kind of test: H1975 proliferation assay (Cell Titer-Glo). It counts as cell-based. Conditions: Homo sapiens, NCI-H1975, 72 h, NCI-H1975 cells, 72 hour incubation, read-out: H1975 antiproliferative EC50. The protocol: H1975 Proliferation Assays
All cell culture reagents were purchased from Invitrogen/Gibco. Cells are cultured at 37° C. at 5% CO2 and split as recommended by ATCC.
In general terms: Cellular ATP, detected with luciferase, serves as a proxy for viable cell number.

For test [2], the target named is T1, EGFR del746-750 T790M (Homo sapiens, UniProt P00533, DEL746-750/T790M).
T1 construct: purchased Carna Biosciences 08-528
Kind of test: EGFR del746-750 T790M biochemical assay (Caliper mobility shift). Conditions: 5 μM ATP; apparent Ki (Morrison fit) converted by Cheng-Prusoff, Km of ATP 2.1 μM; read-out: EGFR(T790M/d746-750) Ki. In short, it runs like this: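 Kinase reactions ran 30 min at room temperature (22 °C), then were stopped with 80 mM EDTA. Phosphorylated product and substrate were separated electrophoretically and quantified by Caliper mobility shift.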

The target in test [3] is T2, EGFR T790M L858R (Homo sapiens, UniProt P00533, L858R/T790M).
T2 construct: purchased Life Technologies PV4879
Kind of test: EGFR T790M L858R biochemical assay (Caliper mobility shift). Conditions: 5 μM ATP; apparent Ki (Morrison fit) converted by Cheng-Prusoff, Km of ATP 1.3 μM. In short, it runs like this:
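Reactions run 30 minutes at room temperature (22 °C), stopped with 80 mM EDTA. Phosphorylated product and substrate separated electrophoretically and quantified by Caliper mobility shift.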

The target in test [4] is T3, phosphor-EGFR in H1975(L585R/T790M) mutant EGFR expressing cells (Homo sapiens, UniProt P00533, L858R/T790M).
T3 construct: host or cells: NCI-H1975
The experiment in a line: H1975 pEGFR MSD cellular assay. It counts as cell-based. Conditions: NCI-H1975 cells, serum starved, 1 hour compound incubation, pEGFR Tyr1068 MSD; read-out: HI975 pEGFR EC50. In short, it runs like this:
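NCI-H1975 cells, 30,000/well, serum-starved overnight, then treated 1 hour at 37° C with serially diluted compounds in serum-free medium (0.5% DMSO). Lysates captured on anti-phospho-EGFR plates overnight at 4° C, detected with SULFO-TAG anti-total EGFR by electrochemiluminescence. Inhibition vs untreated controls; EC50 from 4-parameter logistic fit.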

T1 sequence (P00533 with tags, fused parts or gaps DEL746-750/T790M limits assumed): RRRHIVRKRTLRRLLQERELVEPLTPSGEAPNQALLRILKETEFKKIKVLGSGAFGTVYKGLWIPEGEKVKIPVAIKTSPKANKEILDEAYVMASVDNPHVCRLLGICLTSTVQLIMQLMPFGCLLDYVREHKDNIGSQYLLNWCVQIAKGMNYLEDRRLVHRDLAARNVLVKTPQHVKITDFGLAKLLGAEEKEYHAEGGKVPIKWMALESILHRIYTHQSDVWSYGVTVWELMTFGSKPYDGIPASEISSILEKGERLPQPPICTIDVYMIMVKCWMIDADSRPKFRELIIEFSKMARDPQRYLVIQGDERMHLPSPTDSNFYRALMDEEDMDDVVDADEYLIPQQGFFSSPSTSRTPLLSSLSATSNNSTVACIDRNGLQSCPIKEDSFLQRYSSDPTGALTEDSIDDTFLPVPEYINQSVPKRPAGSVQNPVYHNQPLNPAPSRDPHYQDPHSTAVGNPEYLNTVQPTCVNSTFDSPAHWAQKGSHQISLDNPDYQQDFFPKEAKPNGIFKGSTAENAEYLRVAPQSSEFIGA
T3 sequence (P00533 25-1210 T790M/L858R): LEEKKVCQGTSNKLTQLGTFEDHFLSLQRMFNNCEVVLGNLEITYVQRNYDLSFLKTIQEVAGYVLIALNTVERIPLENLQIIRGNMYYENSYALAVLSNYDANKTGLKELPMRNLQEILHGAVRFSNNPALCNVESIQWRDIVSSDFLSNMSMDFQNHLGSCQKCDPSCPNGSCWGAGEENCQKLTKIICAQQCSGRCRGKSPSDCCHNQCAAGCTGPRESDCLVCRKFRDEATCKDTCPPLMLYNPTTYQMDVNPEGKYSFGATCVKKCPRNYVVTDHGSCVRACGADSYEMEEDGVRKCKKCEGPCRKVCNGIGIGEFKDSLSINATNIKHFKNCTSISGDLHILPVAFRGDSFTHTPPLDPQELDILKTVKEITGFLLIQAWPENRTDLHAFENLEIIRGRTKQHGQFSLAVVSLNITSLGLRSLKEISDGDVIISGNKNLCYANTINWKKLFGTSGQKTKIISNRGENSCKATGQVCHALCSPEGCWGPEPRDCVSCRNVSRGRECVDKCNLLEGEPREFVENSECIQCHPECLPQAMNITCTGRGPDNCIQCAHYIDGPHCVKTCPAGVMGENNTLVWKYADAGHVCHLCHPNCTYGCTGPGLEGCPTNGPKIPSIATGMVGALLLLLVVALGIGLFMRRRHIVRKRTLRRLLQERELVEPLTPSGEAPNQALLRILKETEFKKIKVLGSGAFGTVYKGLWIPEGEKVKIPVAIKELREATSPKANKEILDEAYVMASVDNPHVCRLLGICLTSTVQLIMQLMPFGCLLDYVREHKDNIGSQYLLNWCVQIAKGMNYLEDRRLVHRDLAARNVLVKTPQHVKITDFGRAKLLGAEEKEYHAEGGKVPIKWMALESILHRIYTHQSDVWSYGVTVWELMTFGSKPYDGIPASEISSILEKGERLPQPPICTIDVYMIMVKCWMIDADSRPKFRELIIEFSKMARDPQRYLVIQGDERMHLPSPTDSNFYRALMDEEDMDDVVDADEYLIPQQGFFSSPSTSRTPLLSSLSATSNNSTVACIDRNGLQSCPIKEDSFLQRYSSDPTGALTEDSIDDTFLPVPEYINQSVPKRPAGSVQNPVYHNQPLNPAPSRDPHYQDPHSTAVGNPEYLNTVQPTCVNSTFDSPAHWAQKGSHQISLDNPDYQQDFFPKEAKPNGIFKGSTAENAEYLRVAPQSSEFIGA
T2 sequence (P00533 25-1210 T790M/L858R): as above

With `CC(C)n1nc(N2CC(C(=O)NC3CC(O)C3)C2)c2cnc(Nc3ccnc(-c4cnn(S(=O)(=O)C5CC5)c4)n3)cc21` (stereo not drawn) [Example 170, 1-(6-(2-(1-(Cyclopropylsulfonyl)-1H-pyrazol-4-yl)pyrimidin-4-ylamino)-1-isopropyl-1H-pyrazolo[4,3-c]pyridin-3-yl)-N-(3-hydroxycyclobutyl)azetidine-3-carboxamide], the EC50 was greater than 10000 nM in test [1] and 731 nM in test [4]. Further, the Ki in test [2] came to 1.2 nM; in test [3], 1.4 nM.
The matching figures for `CC(n1nc(N2CCNC2=O)c2cnc(Nc3ccnc(N4CCC(C)(O)CC4)n3)cc21)C(F)(F)F` (stereo not drawn) [Example 171, 1-(6-(2-(4-Hydroxy-4-methylpiperidin-1-yl)pyrimidin-4-ylamino)-1-(1,1,1-trifluoropropan-2-yl)-1H-pyrazolo[4,3-c]pyridin-3-yl)imidazolidin-2-one]: 1070 nM, 703 nM, 33.1 nM and 6.2 nM.
The matching figures for `CC(n1nc(N2CC3(COC3)C2)c2cnc(Nc3ccnc(-c4cnn(S(=O)(=O)C5CC5)c4)n3)cc21)C(F)(F)F` (stereo not drawn) [Example 172, N-(2-(1-(Cyclopropylsulfonyl)-1H-pyrazol-4-yl)pyrimidin-4-yl)-3-(2-oxa-6-azaspiro[3.3]heptan-6-yl)-1-(1,1,1-trifluoropropan-2-yl)-1H-pyrazolo[4,3-c]pyridin-6-amine]: 699 nM, 154 nM, 2.5 nM and 1.8 nM.
For `CC(C)n1nc(NCC(F)(F)F)c2cnc(Nc3ccnc(-c4cnn(S(=O)(=O)C5CC5)c4)n3)cc21` [Example 181, N^6-(2-(1-(cyclopropylsulfonyl)-1H-pyrazol-4-yl)pyrimidin-4-yl)-1-isopropyl-N^3-(2,2,2-trifluoroethyl)-1H-pyrazolo[4,3-c]pyridine-3,6-diamine], in that order: greater than 10000 nM, 3260 nM, 10.8 nM and 8.2 nM.
Regarding `CCC(C)n1nc(N2CCNC2=O)c2cnc(Nc3ccnc(N4CC[C@H](O)[C@H](F)C4)n3)cc21` (stereo partly drawn) [Example 195, 1-(1-(sec-Butyl)-6-((2-((3R,4S)-3-fluoro-4-hydroxypiperidin-1-yl)pyrimidin-4-yl)amino)-1H-pyrazolo[4,3-c]pyridin-3-yl)imidazolidin-2-one], the EC50 in test [1] is 208 nM; in test [4], 44.9 nM. Moreover, the Ki in test [2] came out at 3.1 nM; in test [3], 1 nM.
For `CCC(C)n1nc(N2CC[C@@H](O)C2)c2cnc(Nc3ccnc(N4CC[C@H](O)[C@H](F)C4)n3)cc21` (stereo partly drawn) [Example 196, (3R,4S)-1-(4-((1-(sec-Butyl)-3-((R)-3-hydroxypyrrolidin-1-yl)-1H-pyrazolo[4,3-c]pyridin-6-yl)amino)pyrimidin-2-yl)-3-fluoropiperidin-4-ol], in that order: 263 nM, 12.5 nM, 1.1 nM and 0.9 nM.
On to `CCC(C)n1nc(N2CCCC2=O)c2cnc(Nc3ccnc(N4CC[C@@H](O)[C@@H](F)C4)n3)cc21` (stereo partly drawn) [Example 200, 1-(1-(sec-Butyl)-6-((2-((3S,4R)-3-fluoro-4-hydroxypiperidin-1-yl)pyrimidin-4-yl)amino)-1H-pyrazolo[4,3-c]pyridin-3-yl)pyrrolidin-2-one], for which the EC50 in test [1] amounted to 300 nM; in test [4], 75.4 nM. Besides, the Ki came out at 2.6 nM in test [2] and 1.2 nM in test [3].
Consider `CCC(C)n1nc(N2CC3(COC3)C2)c2cnc(Nc3ccnc(N4CCC(C)(O)CC4)n3)cc21` (stereo not drawn) [Example 202, 1-(4-((1-(sec-Butyl)-3-(2-oxa-6-azaspiro[3.3]heptan-6-yl)-1H-pyrazolo[4,3-c]pyridin-6-yl)amino)pyrimidin-2-yl)-4-methylpiperidin-4-ol], for which the figures for the EC50 in test [1] and in test [4] were 881 nM and 141 nM, respectively. Besides, the Ki in test [2] is 4.8 nM; in test [3] it was 2.8 nM.
The matching figures for `CCC(C)n1nc(N2CC[C@@H](O)C2)c2cnc(Nc3ccnc(N4CCC(C)(O)CC4)n3)cc21` (stereo partly drawn) [Example 203, 1-(4-((1-(sec-Butyl)-3-((R)-3-hydroxypyrrolidin-1-yl)-1H-pyrazolo[4,3-c]pyridin-6-yl)amino)pyrimidin-2-yl)-4-methylpiperidin-4-ol]: 619 nM, 77 nM, 2.1 nM and 1.5 nM.
For `CCC(C)n1nc(N2CCCC2=O)c2cnc(Nc3ccnc(N4CCC(C)(O)CC4)n3)cc21` (stereo not drawn) [Example 204, 1-(1-(sec-Butyl)-6-((2-(4-hydroxy-4-methylpiperidin-1-yl)pyrimidin-4-yl)amino)-1H-pyrazolo[4,3-c]pyridin-3-yl)pyrrolidin-2-one], in that order: 569 nM, 224 nM, 4.5 nM and 2.2 nM.
The matching figures for `CC(C)n1nc(N2CC[C@@H](O)C2)c2cnc(Nc3ccnc(N4CCC(C)(O)CC4)n3)cc21` [Example 205, (R)-1-(4-((3-(3-Hydroxypyrrolidin-1-yl)-1-isopropyl-1H-pyrazolo[4,3-c]pyridin-6-yl)amino)pyrimidin-2-yl)-4-methylpiperidin-4-ol]: 831 nM, 287 nM, 9 nM and 2.7 nM.
`CCC(C)n1nc(N2CC[C@@H](O)C2)c2cnc(Nc3ccnc(N4CCC(S(C)(=O)=O)CC4)n3)cc21` (stereo partly drawn) [Example 206, (3R)-1-(1-(sec-Butyl)-6-((2-(4-(methylsulfonyl)piperidin-1-yl)pyrimidin-4-yl)amino)-1H-pyrazolo[4,3-c]pyridin-3-yl)pyrrolidin-3-ol]: the EC50 is 1110 nM in test [1] and 298 nM in test [4]. The Ki in test [2] amounted to 8.9 nM; in test [3], 1.9 nM.

The EC50 is the concentration at which the effect is half-maximal.
